Experimental data as given in patent publication EP3553052A1, “5-OXO-4,5-DIHYDRO-1H-1,2,4-TRIAZOL DERIVATIVES FOR THE TREATMENT OF CANCER” (Bayer AG, priority 2018, dated 2019).

Assays:
human DHODH = target: T1, human DHODH (Homo sapiens, UniProt Q02127); assay: DHODH enzymatic assay - 1 (DCIP bleaching); assay type: biochemical; settings: 2 nM DHODH, 1 mM dihydroorotate, 0.1 mM decylubiquinone, 0.06 mM DCIP, pH 8.0, 32 degree celsius; read-out: Target IC50
T1 construct: purchased Novus NBP1-98916
T1 sequence (Q02127 whole entry): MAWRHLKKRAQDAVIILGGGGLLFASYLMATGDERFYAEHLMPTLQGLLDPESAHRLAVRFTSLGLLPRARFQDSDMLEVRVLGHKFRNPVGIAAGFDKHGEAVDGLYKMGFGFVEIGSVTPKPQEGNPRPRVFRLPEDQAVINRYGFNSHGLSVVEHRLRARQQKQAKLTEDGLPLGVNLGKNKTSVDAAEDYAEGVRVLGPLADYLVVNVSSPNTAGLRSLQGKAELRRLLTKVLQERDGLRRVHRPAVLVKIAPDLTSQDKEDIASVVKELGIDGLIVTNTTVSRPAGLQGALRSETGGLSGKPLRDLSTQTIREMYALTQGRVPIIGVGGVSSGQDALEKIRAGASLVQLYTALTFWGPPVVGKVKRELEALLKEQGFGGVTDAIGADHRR
Method: The assay was conducted in buffer containing 50 mM Tris, 0.1% Triton X-100, 150 mM potassium chloride, 2 nM DHODH, 1 mM dihydroorotate, 0.1 mM decylubiquinone, 0.06 mM DCIP, and 2% DMSO at pH 8.0 at 32 degree celsius. The reaction was initiated by addition of substrates. Enzyme activity was monitored kinetically by the reduction in DCIP absorbance at 600 nm. Purified recombinant human DHODH enzyme was purchased from Novus (cat. no. NBP1-98916). Other chemicals were purchased from Sigma-Aldrich. Absorbance measurements were obtained using a BMG clarion star plate-reading spectrophotometer. Table 1: DHODH enzymatic assay : IC50 values of examples in in vitro assay 1

THP-1 cells = assay: THP-1 proliferation assay - 1 (AML); assay type: cell-based; settings: Homo sapiens, 72h incubation, CellTiter-Glo cell viability, read-out: Target IC50
Method: In vitro Assay 2: THP-1 proliferation assay - 1 (AML) 2000 cells/well of THP-1 cells were seeded in RPMI 1640 with Glutamax (Gibco, #11875-093) and 10% fetal calf serum (Biochrom, #S0615) in 384-well plates. The next day, cells were incubated with different concentrations of test compounds for 72h. Cellular viability was analyzed using CellTiter-Glo® Luminescent Cell Viability Assay (Promega, #G7570) according to manufacturer's instructions.

## CCCCOc1cc(-n2nc(-c3ccccc3Cl)[nH]c2=O)c(F)cc1C(=O)Nc1c(F)cccc1Cl [Compound I, 2-butoxy-N-(2-chloro-6-fluorophenyl)-4-[3-(2-chlorophenyl)-5-oxo-4,5-dihydro-1H-1,2,4-triazol-1-yl]-5-fluorobenzamide]
Human DHODH
  IC50: 3000 nM
THP-1 cells
  IC50: 305 nM
